Measured values taken from PubChem BioAssay (NCI).
“And” between values parts separate entries of the source, which are not always exact repeats. Equal values may be shown once.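 Each compound was tested at five concentrations against cells in 96-well plates for 48 hours. The concentration for 50% growth inhibition is given as GI50. At the TGI there is no net growth.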

Key:
Test in all cases: DTP human tumour cell line panel, 48 h
SF-539 CNS = test system: SF-539 CNS
KM12 colon = test system: KM12 colon
HCT-15 colon = test system: HCT-15 colon
MCF7 breast = test system: MCF7 breast
MALME-3M melanoma = test system: MALME-3M melanoma
SW-620 colon = test system: SW-620 colon
MOLT-4 leukemia = test system: MOLT-4 leukemia
COLO 205 colon = test system: COLO 205 colon
OVCAR-5 ovarian = test system: OVCAR-5 ovarian
HCC-2998 colon = test system: HCC-2998 colon

| Compound | GI50 (SF-539 CNS) | TGI (SF-539 CNS) | GI50 (KM12 colon) | TGI (KM12 colon) [µM] | GI50 (HCT-15 colon) | TGI (HCT-15 colon) [µM] | GI50 (MCF7 breast) [µM] | TGI (MCF7 breast) [µM] | GI50 (MALME-3M melanoma) | TGI (MALME-3M melanoma) [µM] | GI50 (SW-620 colon) | TGI (SW-620 colon) [µM] | GI50 (MOLT-4 leukemia) | TGI (MOLT-4 leukemia) [µM] | GI50 (COLO 205 colon) | TGI (COLO 205 colon) | GI50 (OVCAR-5 ovarian) [µM] | TGI (OVCAR-5 ovarian) [µM] | GI50 (HCC-2998 colon) | TGI (HCC-2998 colon) [µM] |
| --- | --- | --- | --- | --- | --- | --- | --- | --- | --- | --- | --- | --- | --- | --- | --- | --- | --- | --- | --- | --- |
| Nc1nc(=S)c2ncn(C3OC(COP(=O)(O)O)C(O)C3O)c2[nH]1 (stereo not drawn) | 2.32 µM | > 100 µM | 3.02 µM | > 100 | 1.72 µM | > 100 | 0.397 | > 100 | 1.81 µM | 75 | 3.59 µM | > 100 | 0.354 µM | > 100 | 2.66 µM | 9.04 µM | 0.752 | > 100 | 3.29 µM | > 100 |
| CN1CCN(c2c(F)cc(NC3=C(Cl)C(=O)c4ncccc4C3=O)cc2F)CC1 | 15.7 µM | 29.1 µM | 16.5 µM | 33 | 1.82 µM | 4.09 | 2.04 | 5.35 | 1.59 µM | 2.97 | 1.76 µM | 3.82 | 1.79 µM | 6.71 | 2.14 µM | 4.82 µM | 14.8 | 28 | 11.5 µM | 26.1 |
| CC(C)Cc1ccc(C(C)/C=C2\CCC(CN(C)C)C2=O)cc1 (stereo not drawn) |  | 30.4 µM |  | 18.2 |  | 23.1 |  | 18 |  | 32.2 |  | 17.4 |  | 7.91 |  | 32.1 µM |  | 43.1 |  | 31.3 |
| Cn1c(=O)c2nc3sc4c(n3c2n(C)c1=O)C(=O)c1ccccc1C4=O |  | > 74.2 µM |  | > 100 |  | > 86.5 |  | > 62 |  | > 100 |  | > 81.9 |  | 38.3 |  | > 100 µM |  | > 100 |  | > 100 |
| CCOC(=O)/C(=C\c1cccc(C)c1)C(C)=O |  | 40.3 µM |  | 32.9 |  | 38.9 |  | 35.4 |  | 31.4 |  | 27 |  | 66.6 |  | 41 µM |  | 31 |  | 28.4 |
| O=C1c2ccccc2C(=O)c2c(NC3CCCCC3)ccc(Nc3ccc(S(=O)(=O)O)cc3)c21 |  | > 100 µM |  | > 100 |  | > 100 |  | 86.8 |  | 58.7 |  | > 100 |  | > 100 |  | 53.1 µM |  | > 100 |  | 71.1 |
| Cc1cnc(C(=O)NNc2nc3sc4c(c3c(=O)[nH]2)C(C)CCC4)cn1 (stereo not drawn) | 0.918 µM | 10.2 µM | 0.93 µM | 95.6 | 0.411 µM | 23.6 | 1.9 | > 100 | 1.72 µM | 12.2 | 2.62 µM | 79.2 | 0.676 µM | 13.4 | 2.03 µM | 13.4 µM | 2.1 | 15.8 | 1.63 µM | 20.8 |
| CC[C@H](C)[C@H](NC(=O)[C@H]1CCCCN1C)C(=O)N(C)[C@H](C[C@@H](OC(C)=O)c1nc(C(=O)NC23CC(C(=O)OC)(C2)C3)cs1)C(C)C | 0.000553 µM and 0.00325 µM | 0.00779 µM and 0.00601 µM | 0.00319 µM and 0.00325 µM | 6.6 | 0.00333 µM and 0.00325 µM | > 32.5 |  | > 32.5 | 0.00756 µM and 0.0305 µM | > 32.5 | 0.000424 µM and 0.00325 µM | > 32.5 | 0.000696 µM and 0.00325 µM | > 32.5 | 0.00152 µM and 0.00325 µM | 0.0299 µM and 0.0339 µM |  | > 32.5 | 0.00299 µM and 0.00325 µM | > 32.5 |
